The test has as its target T1, Human CaV2.2 channels (Homo sapiens, UniProt Q00975).
T1 construct: expressed in transfected cells
As to the kind of experiment: Fluorescent assay for CaV2.2 channels using potassium depolarization to induce channel opening (FLIPR, Fluo-4). Format: cell-based. The conditions noted are these: 3 μM test compound, 30 mM KCl, HEK293 cells stably expressing human CaV2.2; read-out: %-Inhib (CaV2.2) @3 μM @30 mM KCl. The source says: In the process, the Ca^2+ influx is quantified in the FLIPR assay with the aid of a Ca^2+-sensitive dye (type Fluo-4, Molecular Probes Europe BV, Leiden, the Netherlands) in a fluorescent imaging plate reader (FLIPR 3, Molecular Devices, Sunnyvale, USA), as described hereinafter.
2.1 Fluorescent Assay for CaV2.2 Channels Using Potassium Depolarization to Induce Channel Opening
Human CaV2.2 channels were stably expressed in HEK293 cells together with alpha2-delta and beta subunits of voltage gated calcium channels. In addition, an inwardly rectifying potassium channel (Kir2.3) was stably expressed in these cells to augment control of the cell membrane potential by the concentration of extracellular potassium ions. Raise of the extracellular potassium concentration leads to depolarization of the membrane potential and thus regulates the voltage dependent state of CaV2.2 channels. For preparation, cells were seeded in black poly-D-lysine coated 96-well plates (Becton Dickinson, Biocoat 4640) in 100 μl medium [500 ml DMEM/F-12 plus Glutamax (Invitrogen 31331-093) plus 5.5 ml MEM NEAA 100× (Invitrogen 11140-035) plus 50 ml FBS decomplemented (Invitrogen 10270-106) plus 4.4 ml Geneticin (Invitrogen 10131-027) plus 1.1 ml Hygromycin B (Invitrogen 10687-010) plus 68.75 μl Puromycin (Clontech, 631306)] at a cell density of 45.000 cells per well.
Plates were incubated at 37° C. (5% CO2) for 20 to 23 hours. On the day of experiment medium was discarded and cells were loaded with Fluo 4 by addition of 100 μl of basic assay buffer (10 mM HEPES, 30 mM KCl, 120 mM NaCl, 0.8 mM CaCl2, 1.7 mM MgCl2, 10 mM Glucose, 0.1% BSA. pH 7.4) containing 2 μM Fluo 4 (Molecular Probes; F-14201), 0.01% pluronic acid (Molecular Probes; P-6866) and 2.5 mM probenecid (Molecular Probes; P36400). Cells were incubated in the dark at 25° C. for 60 min. Then the dye containing buffer was discarded and 100 μl basic assay buffer was added. Subsequently cells were incubated in the dark at 25° C. for 15 min. 25 μl of basic assay buffer with or without test compound were added and cells were incubated again in the dark at 25° C. for 15 min. Fluorescence intensity was measured on a FLIPR 3 instrument (Molecular Devices Corp., Sunnyvale, Calif.) with excitation at 480 nm and emission at 535 nm. After continuously reading fluorescence for 30 sec, 50 μl of basic assay buffer containing 210 mM KCl (NaCl omitted) were added for depolarization. Peak fluorescent signal intensity was determined and the amplitude of the peak signal, normalized to base line, was used to measure channel inhibition by test compounds.

Each structure is given as a SMILES string. Bounds are passed on as bounds.

T1 sequence (Q00975 whole entry): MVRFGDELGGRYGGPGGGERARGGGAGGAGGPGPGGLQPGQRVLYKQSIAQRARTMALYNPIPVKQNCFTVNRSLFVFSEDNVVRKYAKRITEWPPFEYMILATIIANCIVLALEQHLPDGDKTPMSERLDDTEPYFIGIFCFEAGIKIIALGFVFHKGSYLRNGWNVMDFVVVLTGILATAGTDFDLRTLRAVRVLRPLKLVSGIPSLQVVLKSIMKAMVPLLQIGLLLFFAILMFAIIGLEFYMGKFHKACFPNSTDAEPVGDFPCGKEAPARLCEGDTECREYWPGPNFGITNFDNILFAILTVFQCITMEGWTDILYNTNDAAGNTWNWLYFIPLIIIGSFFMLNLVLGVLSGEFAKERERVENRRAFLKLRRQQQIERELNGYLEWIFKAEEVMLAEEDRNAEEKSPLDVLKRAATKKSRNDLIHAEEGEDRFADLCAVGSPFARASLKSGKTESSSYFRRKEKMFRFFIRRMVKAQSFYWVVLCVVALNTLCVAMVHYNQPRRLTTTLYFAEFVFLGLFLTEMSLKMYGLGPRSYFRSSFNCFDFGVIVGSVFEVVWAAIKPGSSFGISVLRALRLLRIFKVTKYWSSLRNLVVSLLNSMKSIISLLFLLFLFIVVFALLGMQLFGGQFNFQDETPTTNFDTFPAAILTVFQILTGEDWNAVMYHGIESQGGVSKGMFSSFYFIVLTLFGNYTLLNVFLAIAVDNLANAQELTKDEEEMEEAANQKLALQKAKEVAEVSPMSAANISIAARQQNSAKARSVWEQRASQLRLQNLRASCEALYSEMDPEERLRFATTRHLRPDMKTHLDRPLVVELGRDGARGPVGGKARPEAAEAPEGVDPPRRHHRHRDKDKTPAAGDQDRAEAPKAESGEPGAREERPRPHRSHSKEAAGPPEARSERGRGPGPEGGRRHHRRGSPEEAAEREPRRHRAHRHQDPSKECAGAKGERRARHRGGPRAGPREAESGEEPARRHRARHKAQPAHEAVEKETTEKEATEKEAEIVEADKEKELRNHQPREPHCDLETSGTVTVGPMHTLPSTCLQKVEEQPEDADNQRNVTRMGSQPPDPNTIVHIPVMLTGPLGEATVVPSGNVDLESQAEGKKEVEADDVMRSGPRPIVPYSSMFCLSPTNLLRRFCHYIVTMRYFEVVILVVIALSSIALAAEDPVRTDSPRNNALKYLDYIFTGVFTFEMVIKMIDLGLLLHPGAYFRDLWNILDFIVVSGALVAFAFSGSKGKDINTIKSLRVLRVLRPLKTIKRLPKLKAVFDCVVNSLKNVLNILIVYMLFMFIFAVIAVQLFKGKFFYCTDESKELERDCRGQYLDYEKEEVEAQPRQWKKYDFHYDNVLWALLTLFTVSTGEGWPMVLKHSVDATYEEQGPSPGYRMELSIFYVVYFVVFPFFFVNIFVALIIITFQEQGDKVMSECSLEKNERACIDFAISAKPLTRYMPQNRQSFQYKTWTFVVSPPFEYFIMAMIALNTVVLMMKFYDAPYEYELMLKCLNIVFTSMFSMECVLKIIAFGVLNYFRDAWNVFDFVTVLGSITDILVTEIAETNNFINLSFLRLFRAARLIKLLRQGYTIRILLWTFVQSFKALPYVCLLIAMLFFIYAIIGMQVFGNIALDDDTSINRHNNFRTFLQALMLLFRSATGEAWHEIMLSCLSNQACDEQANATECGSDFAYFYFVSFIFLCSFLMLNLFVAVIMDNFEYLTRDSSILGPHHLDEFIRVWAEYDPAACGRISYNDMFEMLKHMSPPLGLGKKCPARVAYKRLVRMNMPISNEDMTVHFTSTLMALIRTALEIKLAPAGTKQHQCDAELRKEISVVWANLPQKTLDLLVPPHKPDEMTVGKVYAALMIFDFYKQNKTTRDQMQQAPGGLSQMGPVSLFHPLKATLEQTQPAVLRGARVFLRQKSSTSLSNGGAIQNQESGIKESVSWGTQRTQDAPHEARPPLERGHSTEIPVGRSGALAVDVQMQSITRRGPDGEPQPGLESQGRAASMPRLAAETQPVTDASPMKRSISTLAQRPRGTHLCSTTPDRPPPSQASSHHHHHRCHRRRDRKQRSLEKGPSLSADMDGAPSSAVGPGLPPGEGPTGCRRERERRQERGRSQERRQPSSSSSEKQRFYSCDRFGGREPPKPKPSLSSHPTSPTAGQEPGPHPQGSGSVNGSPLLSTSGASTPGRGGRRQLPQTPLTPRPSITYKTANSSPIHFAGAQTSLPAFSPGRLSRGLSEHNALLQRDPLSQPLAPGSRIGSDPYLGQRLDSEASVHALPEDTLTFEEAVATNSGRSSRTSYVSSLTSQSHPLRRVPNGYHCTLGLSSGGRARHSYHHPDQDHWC
T1 sequence (P54289 25-1103, further chain): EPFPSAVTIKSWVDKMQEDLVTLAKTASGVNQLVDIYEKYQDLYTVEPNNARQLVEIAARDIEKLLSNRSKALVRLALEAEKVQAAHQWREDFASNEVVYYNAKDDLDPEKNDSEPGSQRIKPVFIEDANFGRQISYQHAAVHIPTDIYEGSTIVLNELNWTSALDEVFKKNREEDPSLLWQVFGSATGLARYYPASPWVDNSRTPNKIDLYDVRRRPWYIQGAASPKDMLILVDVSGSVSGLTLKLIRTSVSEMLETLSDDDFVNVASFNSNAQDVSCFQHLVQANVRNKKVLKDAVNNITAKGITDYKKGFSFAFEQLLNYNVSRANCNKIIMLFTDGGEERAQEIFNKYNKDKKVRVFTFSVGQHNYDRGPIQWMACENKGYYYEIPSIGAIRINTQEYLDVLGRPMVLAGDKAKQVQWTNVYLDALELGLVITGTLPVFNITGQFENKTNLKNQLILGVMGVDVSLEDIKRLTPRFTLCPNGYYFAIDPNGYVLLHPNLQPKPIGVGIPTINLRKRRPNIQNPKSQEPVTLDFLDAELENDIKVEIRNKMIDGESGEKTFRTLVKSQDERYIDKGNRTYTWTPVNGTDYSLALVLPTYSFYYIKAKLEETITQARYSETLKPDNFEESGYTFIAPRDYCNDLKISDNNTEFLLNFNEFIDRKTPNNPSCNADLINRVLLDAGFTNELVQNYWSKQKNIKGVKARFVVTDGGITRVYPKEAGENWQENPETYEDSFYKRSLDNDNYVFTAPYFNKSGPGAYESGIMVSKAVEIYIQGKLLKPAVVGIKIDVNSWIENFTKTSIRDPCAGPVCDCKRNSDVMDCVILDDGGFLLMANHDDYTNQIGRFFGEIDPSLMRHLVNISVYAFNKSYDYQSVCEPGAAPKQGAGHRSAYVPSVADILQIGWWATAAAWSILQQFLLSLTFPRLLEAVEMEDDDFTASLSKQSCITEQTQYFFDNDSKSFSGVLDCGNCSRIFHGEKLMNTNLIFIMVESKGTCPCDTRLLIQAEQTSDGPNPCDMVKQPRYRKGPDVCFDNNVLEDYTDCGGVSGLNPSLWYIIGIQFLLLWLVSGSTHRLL
T1 sequence (P54284 whole entry, further chain): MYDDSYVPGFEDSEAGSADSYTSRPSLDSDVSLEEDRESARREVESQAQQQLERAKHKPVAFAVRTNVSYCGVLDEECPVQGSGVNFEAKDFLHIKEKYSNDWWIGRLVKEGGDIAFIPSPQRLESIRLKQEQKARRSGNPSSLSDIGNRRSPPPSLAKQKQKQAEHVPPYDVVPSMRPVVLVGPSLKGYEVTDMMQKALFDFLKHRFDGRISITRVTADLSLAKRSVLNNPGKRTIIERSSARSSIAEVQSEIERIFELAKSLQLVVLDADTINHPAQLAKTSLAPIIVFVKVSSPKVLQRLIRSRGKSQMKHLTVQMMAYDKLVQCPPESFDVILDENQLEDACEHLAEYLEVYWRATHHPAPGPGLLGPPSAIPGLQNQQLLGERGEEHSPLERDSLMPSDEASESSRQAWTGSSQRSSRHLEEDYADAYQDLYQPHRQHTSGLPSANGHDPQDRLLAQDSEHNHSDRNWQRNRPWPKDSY

For the molecule `CN(CCC(C)(C)O)C(=O)c1c(-c2ccc(Cl)cc2)cc(C(F)(F)F)n1Cc1ccccc1` [SC-176, 1-Benzyl-3-(4-chlorophenyl)-N-(3-hydroxy-3-methyl-butyl)-N-methyl-5-(trifluoromethyl)-1H-pyrrole-2-carboxylic acid amide], the inhibition at 3 µM was over 95%. The same measure for `CN(C(=O)c1c(-c2ccc(Cl)cc2)cc(C(F)(F)F)n1Cc1ccccc1)C(CO)C(C)(C)C` (stereo not drawn) [SC-186, 1-Benzyl-3-(4-chlorophenyl)-N-[1-(hydroxymethyl)-2,2-dimethyl-propyl]-N-methyl-5-(trifluoromethyl)-1H-pyrrole-2-carboxylic acid amide]: over 95%; for `Cc1c(-c2ccc(F)cc2)c(C(=O)N2CCOC(C)(C)C2)n(Cc2ccccc2)c1C(F)(F)F` [SC-225, [1-Benzyl-3-(4-fluorophenyl)-4-methyl-5-(trifluoromethyl)-1H-pyrrol-2-yl]-(2,2-dimethyl-morpholin-4-yl)-methanone]: over 95%. On to `Cc1c(-c2ccc(Cl)cc2)c(C(=O)NCCS(C)(=O)=O)n(Cc2ccccc2)c1C(F)(F)F` [SC-129, 1-Benzyl-3-(4-chlorophenyl)-4-methyl-N-(2-methylsulfonyl-ethyl)-5-(trifluoromethyl)-1H-pyrrole-2-carboxylic acid amide], for which the inhibition at 3 µM lay within 75 to 95%.

For the molecule `Cc1c(-c2ccc(Cl)cc2)c(C(=O)N(C)C)n(Cc2ccccc2)c1C(F)(F)F` [SC-18, 1-Benzyl-3-(4-chlorophenyl)-N,N,4-trimethyl-5-(trifluoromethyl)-1H-pyrrole-2-carboxylic acid amide], the inhibition at 3 µM fell in the range of 75 to 95%. For the molecule `Cc1c(-c2ccc(Cl)cc2)c(C(=O)N(C)CC2CCCCO2)n(Cc2ccccc2)c1C(F)(F)F` (stereo not drawn) [SC-138, 1-Benzyl-3-(4-chlorophenyl)-N,4-dimethyl-N-(tetrahydro-pyran-2-yl-methyl)-5-(trifluoromethyl)-1H-pyrrole-2-carboxylic acid amide], the inhibition at 3 µM lay in the range of 75 to 95%. `CN(CC(C)(C)C(N)=O)C(=O)c1c(-c2ccc(Cl)cc2)cc(C(F)(F)F)n1Cc1ccccc1` [SC-174, 1-Benzyl-N-(2-carbamoyl-2-methyl-propyl)-3-(4-chlorophenyl)-N-methyl-5-(trifluoromethyl)-1H-pyrrole-2-carboxylic acid amide]: the inhibition at 3 µM was over 95%. The same measure for `Cc1c(-c2ccc(Cl)cc2)c(C(=O)N(C)CC2(CO)CCC2)n(Cc2ccccc2)c1C(F)(F)F` [SC-116, 1-Benzyl-3-(4-chlorophenyl)-N-[[1-(hydroxymethyl)-cyclobutyl]-methyl]-N,4-dimethyl-5-(trifluoromethyl)-1H-pyrrole-2-carboxylic acid amide]: over 95%; for `CN(CCN1CCCC1)CC(C)(C)CN(C)C(=O)c1c(-c2ccc(Cl)cc2)cc(C(F)(F)F)n1Cc1ccccc1` [SC-203, 1-Benzyl-3-(4-chlorophenyl)-N-[2,2-dimethyl-3-[methyl-(2-pyrrolidin-1-yl-ethyl)-amino]-propyl]-N-methyl-5-(trifluoromethyl)-1H-pyrrole-2-carboxylic acid amide]: over 95%; for `Cc1c(-c2ccc(F)cc2)c(C(=O)N2CC(F)(F)C2)n(Cc2ccccc2)c1C(F)(F)F` [SC-95, [1-Benzyl-3-(4-fluorophenyl)-4-methyl-5-(trifluoromethyl)-1H-pyrrol-2-yl]-(3,3-difluoro-azetidin-1-yl)-methanone]: 75 to 95%. The same measure for `Cc1c(-c2ccc(OCC(F)(F)F)cc2)c(C(=O)N2CCOCC2)n(Cc2ccccc2)c1C(F)(F)F` [SC-263, [1-Benzyl-4-methyl-3-[4-(2,2,2-trifluoro-ethoxy)-phenyl]-5-(trifluoromethyl)-1H-pyrrol-2-yl]-morpholin-4-yl-methanone]: 75 to 95%; for `Cc1c(-c2ccc(Cl)cc2)c(C(=O)N(C)C(C)CS(C)(=O)=O)n(Cc2ccccc2)c1C(F)(F)F` (stereo not drawn) [SC-141, 1-Benzyl-3-(4-chlorophenyl)-N,4-dimethyl-N-(1-methyl-2-methylsulfonyl-ethyl)-5-(trifluoromethyl)-1H-pyrrole-2-carboxylic acid amide]: over 95%. As to `Cc1c(-c2ccc(Cl)cc2)c(C(=O)N2CC(F)(F)C2)n(-c2ccc(Cl)cc2)c1C(F)(F)F` [SC-44, [1,3-Bis(4-chlorophenyl)-4-methyl-5-(trifluoromethyl)-1H-pyrrol-2-yl]-(3,3-difluoro-azetidin-1-yl)-methanone], the inhibition at 3 µM is 75 to 95%. The same measure for `CN(CC(C)(C)C)C(=O)c1c(-c2ccc(Cl)cc2)cc(C(F)(F)F)n1Cc1ccc(F)cc1` [SC-261, 3-(4-Chlorophenyl)-N-(2,2-dimethyl-propyl)-1-[(4-fluorophenyl)-methyl]-N-methyl-5-(trifluoromethyl)-1H-pyrrole-2-carboxylic acid amide]: 75 to 95%; for `COC1(CNC(=O)c2c(-c3ccc(Cl)cc3)c(C)c(C(F)(F)F)n2Cc2ccccc2)CC1` [SC-36, 1-Benzyl-3-(4-chlorophenyl)-N-[(1-methoxy-cyclopropyl)-methyl]-4-methyl-5-(trifluoromethyl)-1H-pyrrole-2-carboxylic acid amide]: over 95%; for `Cc1c(-c2ccc(OC(F)(F)F)cc2F)c(C(=O)N2CCOCC2)n(Cc2ccccc2)c1C(F)(F)F` [SC-262, (1-benzyl-3-(2-fluoro-4-(trifluoromethoxy)phenyl)-4-methyl-5-(trifluoromethyl)-1H-pyrrol-2-yl)(morpholino)methanone]: 75 to 95%.

As for `CN(C(=O)c1c(-c2ccc(Cl)cc2)cc(C(F)(F)F)n1Cc1ccccc1)C(C)(C)CCO` [SC-184, 1-Benzyl-3-(4-chlorophenyl)-N-(3-hydroxy-1,1-dimethyl-propyl)-N-methyl-5-(trifluoromethyl)-1H-pyrrole-2-carboxylic acid amide], the inhibition at 3 µM lay in the range of 75 to 95%. Under `Cc1c(-c2ccc(OC(F)(F)F)cc2)c(C(=O)N(C)C2CCOCC2)n(Cc2ccccc2)c1C(F)(F)F` [SC-237, 1-Benzyl-N,4-dimethyl-N-tetrahydro-pyran-4-yl-5-(trifluoromethyl)-3-[4-(trifluoromethyloxy)-phenyl]-1H-pyrrole-2-carboxylic acid amide] stands 75 to 95%; under `Cc1c(-c2ccc(F)c(Cl)c2)c(C(=O)N(C)CC(C)(C)CO)n(Cc2ccccc2)c1C(F)(F)F` [SC-251, 1-Benzyl-3-(3-chloro-4-fluoro-phenyl)-N-(3-hydroxy-2,2-dimethyl-propyl)-N,4-dimethyl-5-(trifluoromethyl)-1H-pyrrole-2-carboxylic acid amide], 75 to 95%.

As for `COC1CCN(C(=O)c2c(-c3ccc(Cl)cc3)c(C)c(C(F)(F)F)n2Cc2ccccc2)CC1` [SC-145, [1-Benzyl-3-(4-chlorophenyl)-4-methyl-5-(trifluoromethyl)-1H-pyrrol-2-yl]-(4-methoxy-piperidin-1-yl)-methanone], the inhibition at 3 µM is over 95%.

As to `Cc1nnc(CN(C)C(=O)c2c(-c3ccc(Cl)cc3)c(C)c(C(F)(F)F)n2Cc2ccccc2)o1` [SC-143, 1-Benzyl-3-(4-chlorophenyl)-N,4-dimethyl-N-[(5-methyl-[1,3,4]oxadiazol-2-yl)-methyl]-5-(trifluoromethyl)-1H-pyrrole-2-carboxylic acid amide], the inhibition at 3 µM was over 95%.

(Values after US9302988B2, “Fluoromethyl-substituted pyrrole carboxamides” (GRÜNENTHAL GMBH, priority 2012, dated 2016).)
